Drawing on patent US20110130397A1, “PYRROLINONE COMPOUNDS AS INHIBITORS OF BACTERIAL PEPTIDYL TRNA HYDROLASE AND USES THEREOF” (priority 2006, published 2011), this text covers melting point for 24 molecules.

The structures appear in SMILES notation.

In turn, `O=C(COc1ccccc1Cl)C1=C(O)C(=O)N(c2nc3c(Cl)cccc3s2)C1c1ccc(F)cc1` (stereo not drawn) [Compound 460] had a melting point of 143 to 145 °C.

`CCOC(=O)CCC(=O)C1=C(O)C(=O)N(c2nc3ccc(Cl)cc3s2)C1c1ccccc1F` (stereo not drawn) [Compound 493]: the melting point is 206 to 207 °C.

On to `Cc1ccc(C(=O)C2=C(O)C(=O)N(c3ccc4ncsc4c3)C2c2ccc(F)cc2)o1` (stereo not drawn) [Compound 565], for which the melting point lay in the range of 221 to 222 °C. The molecule `CCOC(=O)CCC(=O)C1=C(O)C(=O)N(c2nc3c(Cl)cccc3s2)C1c1ccccc1F` (stereo not drawn) [Compound 499] had a melting point of 180 to 182 °C. With `CC(=O)NC(CC(C)C)C(=O)C1=C(O)C(=O)N(c2nc3ccc(F)cc3s2)C1c1ccc(Cl)cc1` (stereo not drawn) [Compound 649], the melting point lay in the range of 266 to 269 °C.

As to `CC(=O)c1sc(N2C(=O)C(O)=C(C(=O)c3ccc(C)o3)C2c2ccccc2F)nc1C` (stereo not drawn) [Compound 159], the melting point was 244 to 245 °C. The result for `Cc1ccc(C(=O)C2=C(O)C(=O)N(c3nc4ccc(F)cc4s3)C2c2ccc(OCCO)cc2)o1` (stereo not drawn) [Compound 478] reads 134 to 135 °C; that for `COc1ccccc1CC(=O)C1=C(O)C(=O)N(c2nc3c(Cl)cccc3s2)C1c1ccc(F)cc1` (stereo not drawn) [Compound 486], 243 to 245 °C. Regarding `COc1cccc(C2C(C(=O)c3ccc(C)o3)=C(O)C(=O)N2c2nc3c(Cl)cccc3s2)c1` (stereo not drawn) [Compound 604], the melting point was in the range of 255 to 256 °C. Consider `COC(=O)c1cccc(C2C(C(=O)c3ccc(C)o3)=C(O)C(=O)N2c2nc3ccc(OC)cc3s2)c1` (stereo not drawn) [Compound 154], for which the melting point lay in the range of 250 to 252 °C. Molecule `O=C(C1=C(O)C(=O)N(c2nc3c(Cl)cccc3s2)C1c1ccc(F)cc1)C1CC1` (stereo not drawn) [Compound 457] displayed a melting point of 218 to 219 °C. Molecule `Cc1ccc(C(=O)C2=C(O)C(=O)N(c3ncnc4[nH]ncc34)C2c2cccc([N+](=O)[O-])c2)o1` (stereo not drawn) [Compound 225] displayed a melting point of 222 to 223 °C. The figure for `CCOc1ccc2nc(N3C(=O)C(O)=C(C(=O)c4ccc(C)o4)C3c3ccccc3F)sc2c1` (stereo not drawn) [Compound 183] is 251 to 252 °C; for `Cc1ccc(C(=O)C2=C(O)C(=O)N(c3nc4cccnc4s3)C2c2ccc3c(c2)OCO3)o1` (stereo not drawn) [Compound 247] it is 248 to 249 °C; for `Cc1ccc(C(=O)C2=C(O)C(=O)N(Cc3cccs3)C2c2ccccc2F)o1` (stereo not drawn) [Compound 504] it is 193 to 194 °C. As for `Cc1ccc(C(=O)C2=C(O)C(=O)N(c3nc4ccc(Cl)cc4s3)C2c2ccc(OCc3ccccc3)cc2)o1` (stereo not drawn) [Compound 470], the melting point was 196 to 197 °C. On to `COCC(=O)C1=C(O)C(=O)N(c2nc3ccc(F)cc3s2)C1c1ccc(F)cc1` (stereo not drawn) [Compound 444], for which the melting point lay within 249 to 250 °C.

As for `CCOC(=O)C1=C(O)C(=O)N(c2nc3ccc(Cl)cc3s2)C1c1ccc(F)cc1` (stereo not drawn) [Compound 422], the melting point fell in the range of 236 to 237 °C. `O=C(C1=C(O)C(=O)N(c2nc3c(Cl)cccc3s2)C1c1ccc(F)cc1)C1CC2C=CC1C2` (stereo not drawn) [Compound 570] registered a melting point of 216 to 218 °C. Take `CCOc1ccc2nc(N3C(=O)C(O)=C(C(=O)c4ccc(C)o4)C3c3cccc(OCc4ccccc4)c3)sc2c1` (stereo not drawn) [Compound 186]: the melting point lay in the range of 214 to 215 °C. For `Cc1ccc(C(=O)C2=C(O)C(=O)N(c3nc4ccc(Cl)cc4s3)C2c2ccc(C)o2)o1` (stereo not drawn) [Compound 608], the melting point lay within 235 to 236 °C. For `Cc1ccc(C(=O)C2=C(O)C(=O)N(c3nc(N4CCOCC4)c4nc[nH]c4n3)C2c2cccc([N+](=O)[O-])c2)o1` (stereo not drawn) [Compound 284], the melting point was 280 to 282 °C. `COC(=O)c1cccc(C2C(C(=O)c3ccc(C)o3)=C(O)C(=O)N2c2nc3cccnc3s2)c1` (stereo not drawn) [Compound 249] returned a melting point of 220 to 221 °C. The result for `COc1ccccc1CC(=O)C1=C(O)C(=O)N(c2nc3ccc(F)cc3s2)C1c1ccc(Cl)cc1` (stereo not drawn) [Compound 488] reads 249 to 250 °C.

A word on the melting point: it is the temperature, or range, at which the solid turns liquid.
